Results on 21 compounds are retold here after PubChem BioAssay (NCI).

Values joined by “and” are separate entries in the source; they are usually repeats but may differ in a detail not shown here. Identical values can stand only once.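 Five concentrations, 48 hours, 96-well plates. GI50 marks 50% less growth. The concentration for full growth arrest is given as TGI.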

For the first assay, the system named is M14 melanoma. The experiment in a line: growth of human tumour cells (NCI), 48 h.
Regarding `COc1ccccc1/C=C/C(=O)/C=C/c1ccccc1O`, the GI50 is 1.46 µM and the TGI was 3.17 µM.
On the same counts, the results for `CC(=O)[O-].CC(=O)[O-].CC(=O)[O-].CC(=O)[O-].[Mo+2].[Mo+2]` are more than 100 µM and more than 100 µM.
`COc1ccc(Nc2nc3ccccc3nc2-c2cccs2)cc1` registered a TGI of more than 100 µM.
On to `CC(CC(=O)Nc1ccc(NC(=O)CC(C)N=NC(N)=S)cc1)N=NC(N)=S` (configuration not stated), for which the TGI is more than 100 µM.
Still for that read-out and setting: then `C#CCC(N)(CO)C(=O)O` (configuration not stated), with more than 100 µM.
On to `O=C(O)CCC(NC(=S)S)C(=O)O.[Na+].[Zn+2]` (configuration not stated), for which the GI50 was more than 50 µM and the TGI was more than 50 µM.
Take `Cc1cn(C2OC(C)(CO)C(O)C2O)c(=O)[nH]c1=O` (configuration not stated): the TGI was more than 100 µM.
For the compound `C[C@H](Cn1ncnn1)Nc1ncc2cc(Oc3ccc(F)cc3F)c(=O)n(C)c2n1`, the GI50 is more than 25 µM and the TGI is more than 25 µM.
Regarding `CCCCCCCCCCCCCC(=O)OCC1OC(=O)CC1O` (configuration not stated), the TGI was found to be 47.9 µM.
For the compound `N=S(c1ccccc1)c1ccccc1[N+](=O)[O-]` (configuration not stated), the TGI worked out at 27.7 µM.
As to `CCCCCCCCCCCCCCCCCCNC(=O)[C@H]1CSC(c2cccs2)N1` (some centres not stated), the GI50 was 0.868 µM and the TGI is 1.66 µM.

For another assay, the system named is SN12C renal. The experiment in a line: growth of human tumour cells (NCI), 48 h.
On to `CC1(c2ccccc2)CC(c2ccccc2)=NO1` (configuration not stated), for which the TGI is more than 100 µM.
With `COc1cccc(/C=C2\CCC(C)(CN(C)C)C2=O)c1` (configuration not stated), the TGI was more than 100 µM.
In the case of `CCN(CC)CCNC(=O)c1cn2ncnc(Oc3ccc(NC(=O)Nc4ccc(Cl)c(C(F)(F)F)c4)c(F)c3)c2c1C`, the GI50 was 1.69 µM and the TGI was 3.4 µM.
Consider `Cl[Si]1(Cl)Oc2ccccc2O[Si](Cl)(Cl)Oc2ccccc2O1`, for which the TGI was more than 100 µM.
In the case of `COc1ccc(-c2nnc(N3CCN(C(=O)CN4CCN(c5ccc(OC)cc5)CC4)CC3)nc2-c2ccc(OC)cc2)cc1`, the GI50 is 3.2 µM and the TGI is 15.5 µM.
With `C[n+]1c2ccccc2cc2c(CNC(CCCN=C(N)N)C(=O)O)cccc21` (configuration not stated), the TGI was 2.18 µM and 2.99 µM.
On the same count and under the same terms, then `Cc1cc2c(Br)cc(Br)c(O)c2nc1C(=O)c1ccccc1`, with more than 100 µM.
With `Cn1cc(-c2csc(-c3cn(C)c4ccccc34)n2)c2cnccc21`, the GI50 was 1.66 µM and the TGI was found to be 3.1 µM.
The like results for `COc1ccccc1/C=C/C(=O)/C=C/c1ccccc1O` were, in that order, 1.66 µM and 5.65 µM.
On the same counts, the results for `CC(=O)[O-].CC(=O)[O-].CC(=O)[O-].CC(=O)[O-].[Mo+2].[Mo+2]` are more than 100 µM and more than 100 µM.
`COc1ccc(Nc2nc3ccccc3nc2-c2cccs2)cc1`: the TGI is more than 100 µM.
Same read-out and setting: then `CC(CC(=O)Nc1ccc(NC(=O)CC(C)N=NC(N)=S)cc1)N=NC(N)=S` (configuration not stated), with more than 100 µM.
Regarding `O=C(O)CCC(NC(=S)S)C(=O)O.[Na+].[Zn+2]` (configuration not stated), the GI50 was more than 50 µM and the TGI is more than 50 µM.
In turn, `Cc1cn(C2OC(C)(CO)C(O)C2O)c(=O)[nH]c1=O` (configuration not stated) returned a TGI of more than 100 µM.
For `C[C@H](Cn1ncnn1)Nc1ncc2cc(Oc3ccc(F)cc3F)c(=O)n(C)c2n1`, the GI50 is more than 25 µM and the TGI was more than 25 µM.
Consider `CCCCCCCCCCCCCC(=O)OCC1OC(=O)CC1O` (configuration not stated), for which the TGI was more than 100 µM.
On the same count and under the same terms, then `N=S(c1ccccc1)c1ccccc1[N+](=O)[O-]` (configuration not stated), with 29.2 µM.
In the case of `CCCCCCCCCCCCCCCCCCNC(=O)[C@H]1CSC(c2cccs2)N1` (some centres not stated), the GI50 is 0.885 µM and the TGI came out at 1.76 µM.
On the same counts, the results for `Cn1c2ccccc2c2c(=O)c3ccccc3[nH]c21` are 38.5 µM and more than 100 µM.

Another assay concerns HT29 colon. The experiment in a line: growth of human tumour cells (NCI), 48 h.
`CC1(c2ccccc2)CC(c2ccccc2)=NO1` (configuration not stated) came in with a TGI of more than 100 µM.
In the case of `COc1cccc(/C=C2\CCC(C)(CN(C)C)C2=O)c1` (configuration not stated), the TGI was more than 100 µM.
Take `CCN(CC)CCNC(=O)c1cn2ncnc(Oc3ccc(NC(=O)Nc4ccc(Cl)c(C(F)(F)F)c4)c(F)c3)c2c1C`: the GI50 is 0.834 µM and the TGI turned out to be 2.45 µM.
Turning to `Cl[Si]1(Cl)Oc2ccccc2O[Si](Cl)(Cl)Oc2ccccc2O1`, the TGI amounted to 70.9 µM.
As for `OC(c1ccc(Br)cc1)(c1cccs1)C1CC1` (configuration not stated), the TGI amounted to 68 µM.
As for `COc1ccc(-c2nnc(N3CCN(C(=O)CN4CCN(c5ccc(OC)cc5)CC4)CC3)nc2-c2ccc(OC)cc2)cc1`, the GI50 is 3.39 µM and the TGI turned out to be 10.8 µM.
As to `C[n+]1c2ccccc2cc2c(CNC(CCCN=C(N)N)C(=O)O)cccc21` (configuration not stated), the GI50 was 0.339 µM; the TGI is 1.14 µM and 5.85 µM.
`Cc1cc2c(Br)cc(Br)c(O)c2nc1C(=O)c1ccccc1` registered a TGI of more than 79.1 µM.
On to `Cn1cc(-c2csc(-c3cn(C)c4ccccc34)n2)c2cnccc21`, for which the GI50 was 1.98 µM and the TGI amounted to 3.71 µM.
On the same counts, the results for `COc1ccccc1/C=C/C(=O)/C=C/c1ccccc1O` are 0.853 µM and 2.75 µM.
The like results for `CC(=O)[O-].CC(=O)[O-].CC(=O)[O-].CC(=O)[O-].[Mo+2].[Mo+2]` were, in that order, more than 100 µM and more than 100 µM.
Compound `CC(CC(=O)Nc1ccc(NC(=O)CC(C)N=NC(N)=S)cc1)N=NC(N)=S` (configuration not stated) returned a TGI of more than 100 µM.
Still for that read-out and setting: next, `C#CCC(N)(CO)C(=O)O` (configuration not stated): more than 100 µM.
Turning to `O=C(O)CCC(NC(=S)S)C(=O)O.[Na+].[Zn+2]` (configuration not stated), the GI50 was more than 50 µM and the TGI is more than 50 µM.
On to `Cc1cn(C2OC(C)(CO)C(O)C2O)c(=O)[nH]c1=O` (configuration not stated), for which the TGI was more than 100 µM.
Regarding `C[C@H](Cn1ncnn1)Nc1ncc2cc(Oc3ccc(F)cc3F)c(=O)n(C)c2n1`, the GI50 is more than 25 µM and the TGI was more than 25 µM.
The compound `CCCCCCCCCCCCCC(=O)OCC1OC(=O)CC1O` (configuration not stated) showed a TGI of more than 100 µM.
The same measure, in the same setting: next, `N=S(c1ccccc1)c1ccccc1[N+](=O)[O-]` (configuration not stated): 38.7 µM.
For the compound `CCCCCCCCCCCCCCCCCCNC(=O)[C@H]1CSC(c2cccs2)N1` (some centres not stated), the GI50 is 1.46 µM and the TGI was found to be 4.2 µM.
